In brackets after ≈: the same amount, converted by molar mass.
Columns and labels:
[1] = test system: Trichophyton mentagrophytes; assay: Antifungal activity against Trichophyton mentagrophytes; format: functional
Pyricularia oryzae = assay: Antifungal activity against Magnaporthe oryzae; format: functional, organism-based
Botrytis cinerea [2] = assay: Antifungal activity against Botryotinia fuckeliana; format: functional, organism-based
Botrytis cinerea [3] = assay: Antifungal activity against Botryotinia fuckeliana assessed as accumulation of squalene using [2-14C]acetate at 1 x 10^-7 M; format: functional
[4] = test system: Trichophyton mentagrophytes; assay: Antifungal activity against Trichophyton mentagrophytes assessed as accumulation of squalene using [2-14C]acetate at 1 x 10^-9 M; format: functional
Botrytis cinerea [5] = assay: Antifungal activity against Botryotinia fuckeliana assessed as accumulation of squalene using [2-14C]acetate at 1 x 10^-6 M; format: functional
[6] = test system: Trichophyton mentagrophytes; assay: Antifungal activity against Trichophyton mentagrophytes assessed as accumulation of squalene using [2-14C]acetate at 1 x 10^-8 M; format: functional
Botrytis cinerea [7] = assay: Antifungal activity against Botryotinia fuckeliana assessed as accumulation of squalene using [2-14C]acetate at 1 x 10^-5 M; format: functional
[8] = test system: Trichophyton mentagrophytes; assay: Antifungal activity against Trichophyton mentagrophytes assessed as accumulation of squalene using [2-14C]acetate at 1 x 10^-7 M; format: functional
Botrytis cinerea [9] = assay: Antifungal activity against Botryotinia fuckeliana assessed as accumulation of squalene using [2-14C]acetate at 3 x 10^-5 M; format: functional
[10] = target: T1, Squalene epoxidase ERG1 (Saccharomyces cerevisiae S288c) (UniProt P32476); assay: Inhibition of squalene epoxidase in Saccharomyces cerevisiae IFO 1346 assessed as incorporation of [2-14C]mevalonate into squalene at 1 x 10^-5 M after 3 hr; design: scale not given: the % may be the effect or the level left
T1 sequence (whole entry): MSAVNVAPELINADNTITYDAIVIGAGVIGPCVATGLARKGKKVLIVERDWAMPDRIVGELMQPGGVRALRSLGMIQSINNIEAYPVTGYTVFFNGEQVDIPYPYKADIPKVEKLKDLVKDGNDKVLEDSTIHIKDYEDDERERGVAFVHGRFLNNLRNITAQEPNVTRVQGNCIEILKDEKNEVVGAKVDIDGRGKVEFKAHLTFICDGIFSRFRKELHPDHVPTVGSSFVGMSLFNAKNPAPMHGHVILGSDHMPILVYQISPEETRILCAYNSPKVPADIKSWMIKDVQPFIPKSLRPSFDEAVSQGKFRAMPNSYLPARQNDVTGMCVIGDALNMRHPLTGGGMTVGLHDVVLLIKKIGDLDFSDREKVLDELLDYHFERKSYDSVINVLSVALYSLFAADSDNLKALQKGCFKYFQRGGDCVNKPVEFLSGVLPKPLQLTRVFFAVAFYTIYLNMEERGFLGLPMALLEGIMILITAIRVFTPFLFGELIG

[11] = target: T1, Squalene epoxidase ERG1 (Saccharomyces cerevisiae S288c); assay: Inhibition of squalene epoxidase in Saccharomyces cerevisiae IFO 1346 assessed as incorporation of [2-14C]mevalonate into 4,4-dimethyl sterols at 1 x 10^-5 M after 3 hr; design: scale not given: the % may be the effect or the level left
[12] = target: T1, Squalene epoxidase ERG1 (Saccharomyces cerevisiae S288c); assay: Inhibition of squalene epoxidase in Saccharomyces cerevisiae IFO 1346 assessed as incorporation of [2-14C]mevalonate into 4alpha-methyl sterols at 1 x 10^-5 M after 3 hr; design: scale not given: the % may be the effect or the level left
[13] = target: T1, Squalene epoxidase ERG1 (Saccharomyces cerevisiae S288c); assay: Inhibition of squalene epoxidase in Saccharomyces cerevisiae IFO 1346 assessed as incorporation of [2-14C]mevalonate into 2,3-oxidosqualene at 1 x 10^-5 M after 3 hr; design: scale not given: the % may be the effect or the level left
[14] = target: T1, Squalene epoxidase ERG1 (Saccharomyces cerevisiae S288c); assay: Inhibition of squalene epoxidase in Saccharomyces cerevisiae IFO 1346 assessed as incorporation of [2-14C]mevalonate into 4-desmethyl sterols at 1 x 10^-5 M after 3 hr; design: scale not given: the % may be the effect or the level left
[15] = target: T1, Squalene epoxidase ERG1 (Saccharomyces cerevisiae S288c); assay: Inhibition of squalene epoxidase in Saccharomyces cerevisiae IFO 1346 assessed as incorporation of [2-14C]mevalonate into 4,4-dimethyl sterols at 1 x 10^-4 M after 3 hr; design: scale not given: the % may be the effect or the level left
[16] = target: T1, Squalene epoxidase ERG1 (Saccharomyces cerevisiae S288c); assay: Inhibition of squalene epoxidase in Saccharomyces cerevisiae IFO 1346 assessed as incorporation of [2-14C]mevalonate into squalene at 1 x 10^-4 M after 3 hr; design: scale not given: the % may be the effect or the level left
[17] = target: T1, Squalene epoxidase ERG1 (Saccharomyces cerevisiae S288c); assay: Inhibition of squalene epoxidase in Saccharomyces cerevisiae IFO 1346 assessed as incorporation of [2-14C]mevalonate into 4-desmethyl sterols at 1 x 10^-4 M after 3 hr; design: scale not given: the % may be the effect or the level left
[18] = target: T1, Squalene epoxidase ERG1 (Saccharomyces cerevisiae S288c); assay: Inhibition of squalene epoxidase in Saccharomyces cerevisiae IFO 1346 assessed as incorporation of [2-14C]mevalonate into 2,3-oxidosqualene at 1 x 10^-4 M after 3 hr; design: scale not given: the % may be the effect or the level left
[19] = target: T1, Squalene epoxidase ERG1 (Saccharomyces cerevisiae S288c); assay: Inhibition of squalene epoxidase in Saccharomyces cerevisiae IFO 1346 assessed as incorporation of [2-14C]mevalonate into 4alpha-methyl sterols at 1 x 10^-4 M after 3 hr; design: scale not given: the % may be the effect or the level left

SMILES	MIC [1] [µg/mL]	EC50 (Pyricularia oryzae) [µg/mL]	EC50 (Botrytis cinerea [2]) [µg/mL]	other results
CS(=O)(=O)c1ccc(Nc2nc(-c3c(Cl)cccc3Cl)cs2)cc1	3 (≈ 7.51 µM)	3 (≈ 7.51 µM)	> 100	–
Clc1ccc(Nc2nc(-c3c(Cl)cccc3Cl)ns2)cc1	0.1 (≈ 0.28 µM)	0.6 (≈ 1.68 µM)	0.2 (≈ 0.561 µM)	–
Clc1ccc(Nc2nc(-c3c(Cl)cccc3Cl)cs2)cc1Cl	0.1 (≈ 0.256 µM)	1 (≈ 2.56 µM)	1 (≈ 2.56 µM)	–
C[S+]([O-])c1ccc(Nc2nc(-c3c(Cl)cccc3Cl)cs2)cc1 (stereo not drawn)	30 (≈ 78.3 µM)	2 (≈ 5.22 µM)	> 100	–
Clc1cccc(Cl)c1-c1csc(Nc2ccc(I)cc2)n1	0.03 (≈ 0.0671 µM)	0.3 (≈ 0.671 µM)	0.2 (≈ 0.447 µM)	–
COc1cccc(OC)c1-c1csc(Nc2ccc(Cl)cc2)n1	0.03 (≈ 0.0865 µM)	5 (≈ 14.4 µM)	0.2 (≈ 0.577 µM)	Activity (Botrytis cinerea [3]): 2.3%; Activity [4]: 30.5%; Activity (Botrytis cinerea [5]): 46.9%; Activity [6]: 70.6%; Activity (Botrytis cinerea [7]): 79.8%; Activity [8]: 84.1%
Clc1ccc(Nc2nc(-c3ccccc3Cl)cs2)cc1	0.3 (≈ 0.934 µM)	0.3 (≈ 0.934 µM)	> 100	Activity (Botrytis cinerea [7]): 28.8%; Activity (Botrytis cinerea [9]): 46.3%
FC(F)(F)c1ccc(Nc2nc(-c3c(Cl)cccc3Cl)cs2)cc1	0.03 (≈ 0.0771 µM)	0.3 (≈ 0.771 µM)	0.3 (≈ 0.771 µM)	–
CCCOC/C(=N\c1ccc(Cl)cc1C(F)(F)F)n1ccnc1	–	–	–	Activity [10]: 19.3%; Activity [11]: 54%; Activity [12]: 10.3%; Activity [13]: 2.9%; Activity [14]: 12.6%
O=[N+]([O-])c1ccc(Nc2nc(-c3c(Cl)cccc3Cl)cs2)cc1	30 (≈ 81.9 µM)	> 100	> 100	–
FC(F)(F)Oc1ccc(Nc2nc(-c3c(Cl)cccc3Cl)cs2)cc1	0.03 (≈ 0.074 µM)	0.3 (≈ 0.74 µM)	0.5 (≈ 1.23 µM)	–
CCCc1ccc(Nc2nc(-c3c(Cl)cccc3Cl)cs2)cc1	0.1 (≈ 0.275 µM)	30 (≈ 82.6 µM)	> 100	–
Clc1cccc(Cl)c1-c1csc(Nc2ccc(Br)cc2)n1	0.03 (≈ 0.075 µM)	0.5 (≈ 1.25 µM)	0.05 (≈ 0.125 µM)	–
Clc1ccc(Nc2nc(-c3c(Cl)cc(Cl)cc3Cl)cs2)cc1	0.1 (≈ 0.256 µM)	0.3 (≈ 0.769 µM)	0.05 (≈ 0.128 µM)	–
Cc1cccc(N(C)C(=S)Oc2ccc3ccccc3c2)c1 [TOLNAFTATE]	–	–	–	Activity [10]: 49%; Activity (Botrytis cinerea [3]): 10%; Activity [4]: 74.2%; Activity (Botrytis cinerea [5]): 66%; Activity [6]: 72.1%; Activity [11]: 1.9%; Activity (Botrytis cinerea [7]): 79%; Activity [8]: 81.5%; Activity [12]: 1.2%; Activity [13]: 3.5%; Activity [14]: 43.6%
Clc1ccc(Oc2nc(-c3c(Cl)cccc3Cl)cs2)cc1	1 (≈ 2.8 µM)	1 (≈ 2.8 µM)	0.5 (≈ 1.4 µM)	Activity (Botrytis cinerea [7]): 61.1%; Activity (Botrytis cinerea [9]): 68%
CC(C)Oc1ccc(Nc2nc(-c3c(Cl)cccc3Cl)cs2)cc1	30 (≈ 79.1 µM)	3 (≈ 7.91 µM)	> 100	–
Clc1ccc(Cc2nc(-c3c(Cl)cccc3Cl)cs2)cc1	> 100	> 100	> 100	Activity (Botrytis cinerea [7]): 3.8%
Clc1cccc(Nc2nc(-c3c(Cl)cccc3Cl)cs2)c1	0.1 (≈ 0.281 µM)	10 (≈ 28.1 µM)	> 100	Activity (Botrytis cinerea [7]): 4%
Clc1ccc(Nc2nc(-c3c(Cl)cccc3Cl)cs2)cc1	0.03 (≈ 0.0843 µM)	0.4 (≈ 1.12 µM)	0.05 (≈ 0.141 µM)	Activity [10]: 44.9%; Activity (Botrytis cinerea [3]): 7.5%; Activity [4]: 28.5%; Activity (Botrytis cinerea [5]): 72.5%; Activity [6]: 67.4%; Activity [15]: 0.9%; Activity [11]: 1.5%; Activity [16]: 80.3%; Activity (Botrytis cinerea [7]): 86.7%; Activity [17]: 15.3%; Activity [18]: 1.9%; Activity [8]: 85.8%; Activity [19]: 0.7%; Activity [12]: 1.7%; Activity [13]: 3.6%; Activity [14]: 47.2%

SMILES	MIC [1] [µg/mL]	EC50 (Pyricularia oryzae) [µg/mL]	EC50 (Botrytis cinerea [2]) [µg/mL]	other results
CN(C)c1ccc(Nc2nc(-c3c(Cl)cccc3Cl)cs2)cc1	1 (≈ 2.74 µM)	> 100	> 100	–
COc1ccc(Nc2nc(-c3c(Cl)cccc3Cl)cs2)cc1	0.1 (≈ 0.285 µM)	10 (≈ 28.5 µM)	> 100	–
Clc1ccc(Nc2nc(-c3ccc4ccccc4c3)cs2)cc1	> 100	> 100	> 100	Activity [4]: >35%; Activity [8]: 38.7%
Clc1cccc(Cl)c1-c1csc(Nc2ccccc2)n1	1 (≈ 3.11 µM)	2 (≈ 6.23 µM)	> 100	–
CC(C)(C)c1ccc(Nc2nc(-c3c(Cl)cccc3Cl)cs2)cc1	> 100	1 (≈ 2.65 µM)	> 100	–
Fc1cc(Cl)ccc1Nc1nc(-c2c(Cl)cccc2Cl)cs1	0.1 (≈ 0.268 µM)	0.5 (≈ 1.34 µM)	0.1 (≈ 0.268 µM)	–
Clc1ccc(Nc2nc(-c3cccc4ccccc34)cs2)cc1	0.1 (≈ 0.297 µM)	2 (≈ 5.94 µM)	0.3 (≈ 0.891 µM)	Activity [4]: 25.3%; Activity [6]: 11.7%; Activity [8]: 83.1%
CSc1ccc(Nc2nc(-c3c(Cl)cccc3Cl)cs2)cc1	0.1 (≈ 0.272 µM)	4 (≈ 10.9 µM)	0.3 (≈ 0.817 µM)	–
CC(C)c1ccc(Nc2nc(-c3c(Cl)cccc3Cl)cs2)cc1	0.3 (≈ 0.826 µM)	2 (≈ 5.5 µM)	> 100	–
Clc1ccc(Nc2nc(-c3c(Cl)cccc3Cl)cs2)c(Cl)c1	0.3 (≈ 0.769 µM)	5 (≈ 12.8 µM)	> 100	–
Clc1ccc(Nc2nc(-c3ccc(Cl)cc3)cs2)cc1	> 100	0.3 (≈ 0.934 µM)	> 100	Activity (Botrytis cinerea [9]): 8.4%
Fc1ccc(Nc2nc(-c3c(Cl)cccc3Cl)cs2)cc1	0.1 (≈ 0.295 µM)	3 (≈ 8.84 µM)	0.2 (≈ 0.59 µM)	–
Clc1ccc(Nc2nc(-c3ccccc3)cs2)cc1	3 (≈ 10.5 µM)	1 (≈ 3.49 µM)	> 100	Activity (Botrytis cinerea [7]): 2%; Activity (Botrytis cinerea [9]): 14.3%
Cc1cccc(C)c1-c1csc(Nc2ccc(Cl)cc2)n1	0.1 (≈ 0.318 µM)	10 (≈ 31.8 µM)	0.05 (≈ 0.159 µM)	–
Cc1ccc(Nc2nc(-c3c(Cl)cccc3Cl)cs2)cc1	0.1 (≈ 0.298 µM)	3 (≈ 8.95 µM)	0.3 (≈ 0.895 µM)	–
COc1ccc(Br)c(OC)c1-c1csc(Nc2ccc(Cl)cc2)n1	3 (≈ 7.05 µM)	0.5 (≈ 1.17 µM)	> 100	–
Clc1ccc(Nc2nc(-c3cccc(Cl)c3)cs2)cc1	3 (≈ 9.34 µM)	0.3 (≈ 0.934 µM)	> 100	Activity (Botrytis cinerea [9]): 1.7%
Fc1cccc(F)c1-c1csc(Nc2ccc(Cl)cc2)n1	0.3 (≈ 0.929 µM)	1 (≈ 3.1 µM)	> 100	–
CN(c1ccc(Cl)cc1)c1nc(-c2c(Cl)cccc2Cl)cs1	3 (≈ 8.11 µM)	1 (≈ 2.7 µM)	> 100	Activity (Botrytis cinerea [9]): 2%
Clc1ccc(Nc2nc(-c3cccc(Cl)c3Cl)cs2)cc1	3 (≈ 8.43 µM)	> 100	> 100	–

Reference: ChEMBL document CHEMBL3046425, “Synthesis of Antifungal 2-Anilino-4-phenylthiazoles and Their Inhibitory Activities on Sterol Biosynthesis” (J Pestic Sci, 2001)
